Results as given in ChEMBL document CHEMBL1201862, “PubChem BioAssay data set” (2004).
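Step 1: Grow cells in 96-well plates. Step 2: Expose to compound for 48 hours at 5 concentrations. Step 3: Interpolate endpoints linearly; if unreached, use highest concentration. GI50: concentration for 50% inhibition of growth.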 Activity calls are given as the source filed them. Rule as the data show it: active = GI50 up to about 1.1 µM and inactive = higher.

Experiments:
Experiment in all cases: inhibition of tumour cell growth, NCI panel, 48 h
ACHN = system: ACHN
COLO 205 = system: COLO 205
HCC 2998 = system: HCC 2998
HCT-15 = system: HCT-15
HOP-92 = system: HOP-92
HT-29 = system: HT-29
LXFL 529 = system: LXFL 529
MOLT-4 = system: MOLT-4
Malme-3M = system: Malme-3M
NCI-H226 = system: NCI-H226
NCI-H23 = system: NCI-H23
RPMI-8226 = system: RPMI-8226
SF-539 = system: SF-539
SK-OV-3 = system: SK-OV-3
TK-10 = system: TK-10
U-251 = system: U-251
UACC-62 = system: UACC-62
SR = system: SR
Hs-578T = system: Hs-578T
MDA-N = system: MDA-N

| SMILES | GI50 (ACHN) | GI50 (COLO 205) | GI50 (HCC 2998) | GI50 (HCT-15) [µM] | GI50 (HOP-92) | GI50 (HT-29) | GI50 (LXFL 529) | GI50 (MOLT-4) | GI50 (Malme-3M) | GI50 (NCI-H226) | GI50 (NCI-H23) | GI50 (RPMI-8226) | GI50 (SF-539) | GI50 (SK-OV-3) | GI50 (TK-10) | GI50 (U-251) | GI50 (UACC-62) | GI50 (SR) | GI50 (Hs-578T) | GI50 (MDA-N) |
| --- | --- | --- | --- | --- | --- | --- | --- | --- | --- | --- | --- | --- | --- | --- | --- | --- | --- | --- | --- | --- |
| COC(=O)C1CC(C(=O)OC)c2nc3cc(C)c(C)cc3nc21 (stereo not given) | > 100 µM (inactive) | > 100 µM (inactive) | > 100 µM (inactive) | > 100 | > 100 µM (inactive) | > 100 µM (inactive) | > 100 µM (inactive) | > 100 µM (inactive) | > 100 µM (inactive) | > 100 µM (inactive) | > 100 µM (inactive) | > 100 µM (inactive) | > 100 µM (inactive) | > 100 µM (inactive) | > 100 µM (inactive) | > 100 µM (inactive) | > 100 µM (inactive) | – | – | – |
| CC(C)C1CNC2N1C(=O)C2(C)OCc1ccccc1 (stereo not given) | > 100 µM (inactive) | > 100 µM (inactive) | > 100 µM (inactive) | > 100 | – | > 100 µM (inactive) | > 100 µM (inactive) | 80.5 µM (inactive) | > 100 µM (inactive) | 40.6 µM (inactive) | > 100 µM (inactive) | 91.2 µM (inactive) | > 100 µM (inactive) | – | > 100 µM (inactive) | > 100 µM (inactive) | > 100 µM (inactive) | 78.5 µM (inactive) | – | – |
| O=C(/C=C/c1c(O)ccc2ccccc12)c1cccc(O)c1 | > 100 µM (inactive) | > 100 µM (inactive) | > 100 µM (inactive) | > 100 | > 62.8 µM (inactive) | > 100 µM (inactive) | > 83.6 µM (inactive) | 47 µM (inactive) | 59.8 µM (inactive) | > 100 µM (inactive) | > 79.8 µM (inactive) | 64.3 µM (inactive) | > 100 µM (inactive) | > 100 µM (inactive) | > 100 µM (inactive) | > 91.6 µM (inactive) | 28.8 µM (inactive) | 42.7 µM (inactive) | – | – |
| COc1cc(NCC(C#N)C#N)ccc1/N=N/c1ccc(Cl)cc1 | 31.8 µM (inactive) | 17.7 µM (inactive) | 19.7 µM (inactive) | 20 | – | 16.4 µM (inactive) | 18.3 µM (inactive) | 15.5 µM (inactive) | 35.2 µM (inactive) | 30.5 µM (inactive) | 23.8 µM (inactive) | 28.6 µM (inactive) | 25.1 µM (inactive) | 29.9 µM (inactive) | 29.8 µM (inactive) | 18.5 µM (inactive) | 10.6 µM (inactive) | 12.8 µM (inactive) | – | – |
| COC(=O)C1=CCON(c2ccccc2)C1c1ccccc1 (stereo not given) | 57 µM (inactive) | 65.8 µM (inactive) | 65.5 µM (inactive) | 38 | – | 40.4 µM (inactive) | 34.7 µM (inactive) | 27 µM (inactive) | 48.1 µM (inactive) | 93.8 µM (inactive) | 33.2 µM (inactive) | 29.2 µM (inactive) | > 100 µM (inactive) | 53 µM (inactive) | 44.9 µM (inactive) | 40.3 µM (inactive) | 49.8 µM (inactive) | 31.3 µM (inactive) | – | – |
| Cc1cc(NCCCCCCCNc2cc(C)nc3cc([N+](=O)[O-])ccc23)c2ccc([N+](=O)[O-])cc2n1 | 12.7 µM (inactive) | 9.23 µM (inactive) | 11.1 µM (inactive) | 2.55 | 16.5 µM (inactive) | 2.53 µM (inactive) | 1.56 µM (inactive) | 1.9 µM (inactive) | 29.6 µM (inactive) | 18 µM (inactive) | 5.18 µM (inactive) | 1.87 µM (inactive) | 8.63 µM (inactive) | 24.9 µM (inactive) | 17.7 µM (inactive) | 4.28 µM (inactive) | 16.6 µM (inactive) | 1.53 µM (inactive) | 1.86 µM (inactive) | 1.78 µM (inactive) |
| O=C1C2=C(c3ccccc31)C(c1ccccc1)NC(S)=N2 (stereo not given) | > 100 µM (inactive) | > 100 µM (inactive) | > 100 µM (inactive) | 37.1 | 14.8 µM (inactive) | 57.5 µM (inactive) | 26.2 µM (inactive) | 31.4 µM (inactive) | > 100 µM (inactive) | > 100 µM (inactive) | > 100 µM (inactive) | 40.6 µM (inactive) | 19.2 µM (inactive) | > 100 µM (inactive) | > 100 µM (inactive) | 50.1 µM (inactive) | 29 µM (inactive) | – | – | – |
| Clc1ccc2[nH]c(CCSCCc3nc4ccc(Cl)cc4[nH]3)nc2c1 | 2.25 µM (inactive) | 15.4 µM (inactive) | 15.1 µM (inactive) | 13.2 | 12.7 µM (inactive) | 11.6 µM (inactive) | 6.18 µM (inactive) | 3.7 µM (inactive) | – | 13.4 µM (inactive) | 13.6 µM (inactive) | 2.34 µM (inactive) | 16.5 µM (inactive) | 18.1 µM (inactive) | 10.3 µM (inactive) | 13.4 µM (inactive) | 5.64 µM (inactive) | 0.181 µM (active) | – | – |
| C/C=C/C=C/C=C/C=C/C(=O)O | > 100 µM (inactive) | > 100 µM (inactive) | > 100 µM (inactive) | > 100 | – | > 100 µM (inactive) | > 100 µM (inactive) | > 100 µM (inactive) | > 100 µM (inactive) | > 100 µM (inactive) | > 100 µM (inactive) | > 100 µM (inactive) | > 100 µM (inactive) | > 100 µM (inactive) | – | > 100 µM (inactive) | > 100 µM (inactive) | > 100 µM (inactive) | – | – |
